Patent US7569724B2, “Carbamic acid compounds comprising an amide linkage as HDAC inhibitors” (Topotarget UK Limited, priority 2000, dated 2009)
pIC50: −log10 of the molar value. Read-outs that look alike come from different tables or passages of the source.

How the values were obtained:
HeLa cells = assay: Secondary assay: cell proliferation WST-1, HeLa; assay type: cell-based; conditions: Homo sapiens, 48 h, read-out: Cell Proliferation Inhibition WST-1 (IC50 unless otherwise specified) HeLa
Method: (§1) Compounds with HDAC inhibition activity, as determined using the primary assay, were subsequently evaluated using secondary cell-based assays. The following cell lines were used:
HeLa—Human cervical adenocarcinoma cell line (ATCC ref. No. CCL-2).
(§2) Cells were plated in 96-well plates at 3-10×10^3 cells/well in 100 μL of culture medium. The following day, different concentrations of candidate compounds were added and the cells incubated at 37° C. for 48 h. Subsequently, 10 μL/well of WST-1 reagent was added and the cells reincubated for 1 hour. After the incubation time, absorbance was measured.
(§3) WST-1 is a tetrazolium salt which is cleaved to formazan dye by cellular enzymes. An expansion in the number of viable cells results in an increase in the overall activity of mitochondrial dehydrogenases in the sample. This augmentation in the enzyme activity leads to an increase in the amount of formazan dye formed, which directly correlates to the number of metabolically active cells in the culture. The formazan dye produced is quantified by a scanning multiwell spectrophotometer by measuring the absorbance of the dye solution at 450 nm wavelength (reference wavelength 690 nm).
(§4) Percent activity (% activity) in reducing the number of viable cells was calculated for each test compound as: % activity={(S^C−B)/(S^o−B)}×100 wherein S^C denotes signal measured in the presence of the compound being tested, S^o denotes signal measured in the absence of the compound being tested, and B denotes the background signal measured in blank wells containing medium only.
(§5) IC50 values were calculated using the software package Prism 3.0 (GraphPad software Inc., San Diego, Calif.), setting top value at 100 and bottom value at 0.

HDAC (HeLa cell extract) = assay: Primary assay: deacetylase activity, HeLa cell extract as source of HDAC; assay type: biochemical, human; conditions: HeLa cell extract
Source text: Briefly, this assay relies on the release of radioactive acetate from a radioactively labelled histone fragment by the action of HDAC enzyme. Test compounds, which inhibit HDAC, reduce the yield of radioactive acetate. Signal (e.g., scintillation counts) measured in the presence and absence of a test compound provide an indication of that compound's ability to inhibit HDAC activity. Decreased activity indicates increased inhibition by the test compound.
The histone fragment was an N-terminal sequence from histone H4, and it was labelled with radioactively labelled acetyl groups using tritiated acetylcoenzyme A (coA) in conjunction with an enzyme which is the histone acetyltransferase domain of the transcriptional coactivator p300. […] The acetylated peptide was then separated from free acetyl coA by size exclusion chromatography on Sephadex G-15 (Sigma G-15-120), using distilled H2O as the mobile phase.
After purification of the radiolabelled histone fragment, it was incubated with a source of HDAC (e.g., an extract of HeLa cells (a rich source of HDAC), recombinantly produced HDAC1 or HDAC2) and any released acetate was extracted into an organic phase and quantitatively determined using scintillation counting. By including a test compound with the source of HDAC, that compound's ability to inhibit the HDAC was determined.
The HeLa cell extract was made from HeLa cells (ATCC Ref. No. CCL-2) by freeze-thawing three times in 60 mM TrisCl pH 8.0, 450 mM NaCl, 30% glycerol. Two cell volumes of extraction buffer were used, and particulate material was centrifuged out (20800 g, 4° C., 10 min). The supernatant extract having deacetylase activity was aliquotted and frozen for storage.
A source of HDAC (e.g., 2 μL of crude HeLa extract, 5 μL of HDAC1 or HDAC2; in elution buffer, as above) was incubated with 3 μL of radioactively labelled peptide along with appropriate dilutions of candidate compounds (1.5 μL) in a total volume of 150 μL of buffer (20 mM Tris pH 7.4, 10% glycerol). The reaction was carried out at 37° C. for one hour, after which the reaction was stopped by adding 20 μL of 1 M HCl/0.4 M sodium acetate. […] Radioactivity was measured using a Tri-Carb 2100TR Liquid Scintillation Analyzer (Packard).
Percent activity (% activity) for each test compound was calculated as: % activity={(S^C−B)/(S^o−B)}×100 wherein S^C denotes signal measured in the presence of enzyme and the compound being tested, S^o denotes signal measured in the presence of enzyme but in the absence of the compound being tested, and B denotes the background signal measured in the absence of both enzyme and compound being tested.

JURKAT human T-cell line = assay: Secondary assay: cell proliferation WST-1, Jurkat; assay type: cell-based; conditions: Homo sapiens, 48 h, read-out: Cell Proliferation Inhibition WST-1 (IC50 unless otherwise specified) Jurkat
Method: as §1
JURKAT—Human T-cell line (ATCC no. TIB-152).
as §2, §3, §4, §5

[1] = test system: K11 HPV E7 transformed human keratinocyte line; assay: Secondary assay: cell proliferation WST-1, K11; assay type: cell-based; conditions: Homo sapiens, Keratinocyte, 48 h, read-out: Cell Proliferation Inhibition WST-1 (IC50 unless otherwise specified) K11
Method: as §1
K11—HPV E7 transformed human keratinocyte line provided by Pidder Jansen-Duerr, Institut für Biomedizinische Alternsforschung, Innsbruck, Austria.
as §2, §3, §4, §5

[2] = read-out: HDAC Inhibition (IC50 unless otherwise specified) HeLa
[3] = comparative tables, read-out: HeLa IC50

| Compound | pIC50 (HeLa cells) | pIC50 (HDAC (HeLa cell extract); [2]) | pIC50 (HDAC (HeLa cell extract); [3]) | melting point [°C] | pIC50 (JURKAT human T-cell line) | pIC50 [1] | pIC50 (HDAC (HeLa cell extract); comparative tables, no unit in cell, read-out: HeLa IC50) | HDAC Inhibition HeLa, percent (HDAC (HeLa cell extract); @ 500 nM) [% @ 500 nM] | percent HDAC inhibition at the stated concentration (HDAC (HeLa cell extract); comparative tables, @ 500 nM) [% @ 500 nM] |
| --- | --- | --- | --- | --- | --- | --- | --- | --- | --- |
| CN(C)c1ccc(C(=O)NCCCCC(=O)NO)c2ccccc12 [PX082534, 4-Dimethylamino-napthalene-1-carboxylic acid (4-hydroxycarbamoyl-butyl)-amide] | 4.62 | 5.82 | 5.82 | 129 |  |  |  |  |  |
| O=C(CCCCCNC(=O)c1ccc2ccccc2c1)NO [PX105687, Naphthalene-2-carboxylic acid (5-hydroxycarbamoylpentyl)amide] |  |  |  |  | 6.40 | 5.59 |  |  |  |
| O=C(CCCCCNC(=O)c1ccco1)NO [PX105826, Furan-2-carboxylic acid (5-hydroxycarbamoyl-pentyl)-amide] | 4.74 | 6.40 | 6.40 | 113.5 to 115 |  |  |  |  |  |
| O=C(CCCCCNC(=O)c1cccc2ccccc12)NO [PX105828, Naphthalene-1-carboxylic acid (5-hydroxycarbamoyl-pentyl)-amide] | 4.77 | 6.48 | 6.48 | 118 to 119 |  |  |  |  |  |
| O=C(/C=C/C=C/c1ccccc1[N+](=O)[O-])NCCCCCC(=O)NO [PX105830, (2E,4E)-5-(2-Nitrophenyl)penta-2,4-dienoic acid (5-hydroxycarbamoyl-pentyl)amide] | 4.85 | 7.09 |  | 131 to 133 |  |  |  |  |  |
| O=C(/C=C/C=C/c1ccc([N+](=O)[O-])cc1)NCCCCCC(=O)NO [PX105847, (2E,4E)-5-(4-Nitrophenyl)penta-2,4-dienoic acid (5-hydroxycarbamoyl-pentyl)-amide] | 5.08 | 7.12 |  | 111 to 113 |  |  |  |  |  |
| O=C(/C=C/c1ccco1)NCCCCCC(=O)NO [PX106491, 3-Furan-2-yl-N-(5-hydroxycarbamoyl-pentyl)-acrylamide] | 6.28 | 7.08 | 7.08 | 151 to 152.5 |  |  |  |  |  |
| CC(C)(C)c1ccc(C(=O)NCCCCCC(=O)NO)cc1 [PX106496, 4-tert-Butyl-N-(5-hydroxycarbamoylpentyl)benzamide] | 5.24 | 7.09 |  | 150 to 151.5 |  |  |  |  |  |
| O=C(/C=C/C=C/c1ccccc1)NCCCCCCC(=O)NO [PX106518] | 6.19 | 7.21 |  | 147 to 149 |  |  | 7.21 |  |  |
| C/C(=C\C=C\c1ccccc1)C(=O)NCCCCCC(=O)NO [PX106520, (2E,4E)-2-Methyl-5-phenylpenta-2,4-dienoic acid (5-hydroxycarbamoylpentyl)-amide] | 5.08 | 7.20 |  | 158 to 160 |  |  |  |  |  |
| CN(C)c1ccc(/C=C/C=C/C(=O)NCCCCCC(=O)NO)cc1 [PX106527, (2E,4E)-5-(4-Dimethylamino-phenyl)-penta-2,4-dienoic acid (5-hydroxycarbamoyl-pentyl)-amide] | 6.00 | 7.62 | 7.62 | 172 to 174 |  |  |  |  |  |
| O=C(CCCCCCC(=O)NCCc1c[nH]c2ccccc12)NO [PX116216, Octanedioic acid hydroxyamide [2-(1H-indol-3-yl)-ethyl]-amide] | 5.22 | 7.00 |  | 118.5 to 120 |  |  |  |  |  |
| O=C(/C=C/c1cccs1)NCCCCCC(=O)NO [PX117247, N-(5-Hydroxycarbamoyl-pentyl)-3-thiophen-2-yl-acrylamide] | 6.24 | 7.72 |  | 151 to 153 |  |  |  |  |  |
| O=C(CCCCCCC(=O)NCC(c1ccccc1)c1ccccc1)NO [PX117249, Octanedioic acid (2,2-diphenyl-ethyl)-amide hydroxyamide] | 4.96 |  |  | 123 to 123.5 |  |  |  | 64 |  |
| O=C(CCCCCNC(=O)CCCCc1ccccc1)NO [PX117261, 6-(5-Phenyl-pentanoylamino)-hexanoic acid hydroxyamide] | 4.15 |  |  | 97 to 98 |  |  |  | 51 |  |
| O=C(CCCCCNC(=O)[C@H](Cc1c[nH]c2ccccc12)NC(=O)Cc1ccc2ccccc2c1)NO [PX117406, N-Hydroxy-6-[((2S)-3-(1H-indol-3-yl)-2-{[2-(2-naphthyl)acetyl]-amino}propanoyl)amino]-hexanamide] | 5.16 |  |  | 112 to 114 |  |  |  | 48 |  |
| O=C(CCCCCNC(=O)[C@H](Cc1c[nH]c2ccccc12)NC(=O)CCCc1ccccc1)NO [PX117407, N-hydroxy-6-({(2S)-3-(1H-indol-3-yl)-2-[(4-phenylbutanoyl)amino]-propanoyl}amino)-hexanamide] | 4.89 |  |  | 106 to 108 |  |  |  | 40 |  |
| O=C(CCCCCC(=O)NCCc1c[nH]c2ccccc12)NO [PX117408, N^1-Hydroxy-N^7-[2-(1H-indol-3-yl)ethyl]heptanediamide] | 4.96 |  |  | 140 to 142 |  |  |  | 41 |  |
| O=C(C#Cc1ccccc1)NCCCCCC(=O)NO [PX117415, 3-Phenyl-propynoic acid (5-hydroxycarbamoyl-pentyl)-amide] | 4.96 | 7.21 |  | 112 to 113 |  |  |  |  |  |
| CC(C)c1ccc(C(=O)NCCCCCC(=O)NO)cc1 [PX117421, N-[6-(Hydroxyamino)-6-oxohexyl]-4-isopropylbenzamide] | 5.51 | 7.07 |  | 127.5 to 128 |  |  |  |  |  |
| O=C(CCCCCNC(=O)CC/C=C\c1ccccc1)NO [PX117444, (Z)-N-[6-(Hydroxyamino)-6-oxohexyl]-5-phenyl4-pentenamide] | 4.35 | 6.16 |  | 101 to 103 |  |  |  |  |  |
| C/C(=C\C#Cc1ccccc1)C(=O)NCCCCCC(=O)NO [PX117451, E-2-Methyl-5-phenylpent-2-en-4-ynoic acid (5-hydroxycarbamoyl-pentyl)amide] | 4.66 | 7.51 |  |  |  | 4.92 |  |  |  |
| CN(C)c1ccc(CC(=O)NCCCCCC(=O)NO)cc1 [PX117458, 6-[2-(4-Dimethylamino-phenyl)-acetylamino]-hexanoic acid hydroxyamide] |  |  |  | 124 to 126 |  |  |  | 9 | 9 |
| O=C(CCCCCCC(=O)NCc1cccc2ccccc12)NO [PX117459, Octanedioic acid hydroxyamide (naphthalen-1-ylmethyl)-amide] |  |  |  | 141 to 143 |  |  |  | 63 |  |
| O=C(CCCCCC(=O)Nc1ccc2ccccc2c1)NO [PX117461, Heptanedioic acid hydroxyamide naphthalen-2-ylamide] | < 5.30 | 7.70 |  | 142 to 144 |  |  |  |  |  |
